Measurements reported in publication PMC11694514, “Structural and kinetic characterization of DUSP5 with a Di-phosphorylated tripeptide substrate from the ERK activation loop” (Frontiers in chemical biology, 2024).
Where two headings read alike, the source gives them in different places. Where a SMILES comes first, the peptide text is derived from it. [ ]: non-standard residue; d: D form. pY = N[C@@H](Cc1ccc(OP(=O)(O)O)cc1)C(=O)O; pT = C[C@@H](OP(=O)(O)O)[C@H](N)C(=O)O

Key:
DUSP5pdWT [1] = molecular target: T1, DUSP5pdWT (Homo sapiens, UniProt Q16690); assay: Steady state inhibition of pNPP hydrolysis by vanadate and phosphate; settings: for inhibition pattern / Ki (Kis): pNPP substrate; for Ki (Kis): Tris pH 7.5, 0.045 mM DTT, global kinetics analysis
T1 sequence (Q16690 178-319 limits assumed): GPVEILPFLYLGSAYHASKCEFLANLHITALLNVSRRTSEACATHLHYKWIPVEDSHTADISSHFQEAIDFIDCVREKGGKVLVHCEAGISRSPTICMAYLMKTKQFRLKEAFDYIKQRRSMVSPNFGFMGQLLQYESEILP
Protocol: All assays were carried out using pNPP as a substrate in the presence of DTT using a microplate reader and a total volume of 100 μL. Each assay contained an enzyme concentration of approximately 0.072 mg/mL (appropriately 3.13 μM DUSP5pdWT) which was left in a stock solution at about 1 h at 4°C before use. Each assay consisted of a reaction mixture in 100 mM tris-hydrochloride buffer containing 100 mM NaCl and 5.0 mM magnesium chloride (MgCl2) at pH 7.5. […] The kinetic parameters were measured in the presence of 0.045 mM DTT in the assay solution and the assay was started with the addition of pNPP.
For phosphate inhibition studies, the phosphate inhibitor concentrations used were 0.5; 1; 2; 5; 10 mM. […] The kinetic runs were repeated three times and the data were initial processed using excel and the global kinetics analysis was performed using GraphPad Prism 10.1.2. The errors provided in the analysis were calculated by the program.

PTP1B = settings: cited from earlier work
[2] = molecular target: Bovine Low Molecular Weight Phosphotyrosyl Phosphatase; design: method as in Zhang et al. (1997); settings: Bovine heart, substrate PNPP, Sodium acetate, ref Zhang et al. (1997), cited from earlier work
[3] = molecular target: Acid phosphatases (Bovine liver); design: method as in Lawrence and Van Etten (1981); settings: pH 5.5, substrate PNPP, Sodium acetate, ref Lawrence and Van Etten (1981); cited from earlier work
[4] = molecular target: SHP-1 (domain containing protein tyrosine phosphatase-1); settings: pH 7.5; substrate PNPP; Tris; ref Heo et al. (2002); cited from earlier work
[5] = molecular target: Phosphotyrosyl protein phosphatases; settings: pH 5.0; substrate PNPP; Sodium acetate; ref Zhou et al. (1993); cited from earlier work
[6] = molecular target: Human prostatic acid phosphatase; settings: pH 5.0; substrate PNPP; Sodium acetate; ref Zhou et al. (1993); cited from earlier work
[7] = molecular target: Bacteriophage λ protein phosphatase; settings: pH 7.8; substrate PNPP; Tris; ref Reiter et al. (2001); cited from earlier work
PTPase = settings: substrate PNPP, ref Deng et al. (2002), cited from earlier work
DUSPpdWT = molecular target: T2, DUSPpdWT (Homo sapiens, UniProt Q16690); assay: 31P NMR monitoring of tripeptide hydrolysis; type: biochemical
T2 construct: The Dusp5 phosphatase domain gene, both wild type (WT; DUSP5pdWT; used for kinetic studies); inferred from the Nickel NTA purification), with additional N-terminal amino acids (N); made in house
T2 sequence (Q16690 178-319 limits assumed): T1 sequence (Q16690 178-319 limits assumed)
Protocol: Hydrolysis of the pThr-Glu-pTyr peptide was monitored using ^31P 1D NMR and a Varian 500 MHz spectrometer equipped with a broad band probe. 1 mM of peptide was incubated with 100 μM of DUSPpdWT protein for 3 min, and spectra were collected at 25°C. See Figure 2 and, for a time course, Supplementary Figure S3.

DUSP5pdWT [8] = molecular target: T1, DUSP5pdWT; assay: Steady state inhibition of pNPP hydrolysis by tripeptides; type: biochemical; design: The Dusp5 phosphatase domain gene, both wild type (WT; DUSP5pdWT; used for kinetic studies); inferred from the Nickel NTA purification), with additional N-terminal amino acids (N); made in house; settings: for Ki: peptide as inhibitor of pNPP hydrolysis
[9] = Ki, global competitive model, Lineweaver-Burk fit (equation S2)
[10] = Ki, global competitive model, Michaelis-Menten fit (Eq. 2)

Molecule: O=[N+]([O-])c1ccc(OP(=O)(O)O)cc1 [pNPP, p-nitrophenol phosphate]
- Km (DUSP5pdWT [1]; pH 7.5): 8.02 mM

Molecule: O=P(O)(O)O [phosphate, sodium phosphate]
- Ki (PTP1B; pH 7.0, substrate PNPP, 3,3-Dimethylglutarate, ref Zhang, Y.L. and Zhang, Z.Y. (1998)): 17000 µM
- Ki ([2]; pH 5.0): 2200 ± 0.4 µM
- Ki ([2]; pH 7.5): 6200 µM
- inhibition pattern (DUSP5pdWT [1]): competitive inhibitors
- Ki (Kis) (DUSP5pdWT [1]; listed as Phosphate): 17300 µM
- Ki (Kis) (DUSP5pdWT [1]; listed as sodium phosphate): 17320 µM
- inhibition pattern (DUSP5pdWT [1]; listed as Phosphate): competitive inhibition pattern
- Ki [3]: 3000 µM

Molecule: sodium vanadate
- Ki (PTP1B; pH 5.5, substrate PNPP, Tris, ref Heo et al. (2002)): 410 µM
- Ki (PTP1B; pH 7.3, substrate FDP, HEPES, ref Huyer et al. (1997)): 0.38 µM
- Ki (PTP1B; pH 7.5, substrate PNPP, Tris, ref Heo et al. (2002)): 5.6 µM
- Ki ([2]; pH 5.0): 5.4 µM
- Ki ([2]; pH 7.5): 1 µM
- inhibition pattern (DUSP5pdWT [1]): competitive inhibitors
- Ki [3]: 2000 µM
- Ki [4]: 9.3 µM
- Ki [5]: 24 µM
- Ki [6]: 36 µM
- Ki [7]: 0.7 µM
- Ki (PTPase; pH 5.5, Acetate): 1.1 µM
- Ki (PTPase; pH 7.5, Tris): 1.2 µM

Molecule: CC(=O)N[C@H](C(=O)N[C@@H](CCC(=O)O)C(=O)N[C@@H](Cc1ccc(OP(=O)(O)O)cc1)C(N)=O)[C@@H](C)OP(=O)(O)O [pT-E-pY, Ac-pThr-Glu-pTyr-NH2] (Ac-[pT]-Glu-[pY]-NH2)
- conversion to orthophosphate (both phosphates cleaved) (DUSPpdWT; 1 mM peptide, 100 μM DUSP5pdWT, 3 min, 25°C): 100%
- pT and pY peptides remaining (each) (DUSPpdWT; 10-fold lower enzyme concentration, even after prolonged incubation): about 25%
- conversion (DUSPpdWT; 10-fold lower enzyme concentration, first timepoint after 3 min incubation): about 50%
- Ki (DUSP5pdWT [8]; [9]): 1220 µM
- Ki (DUSP5pdWT [8]; [10]): 1670 µM
- kcat (DUSP5pdWT [8]; pNPP substrate, peptide as inhibitor, global competitive model, Michaelis-Menten fit (Eq. 2)): 2.03 ± 0.07 × 10^−2 s^−1
- fold more potent binder (DUSP5pdWT [8]; relative to the pY monophosphorylated peptide): roughly 3 x

Molecule: CC(=O)N[C@H](C(=O)N[C@@H](CCC(=O)O)C(=O)N[C@@H](Cc1ccc(OP(=O)(O)O)cc1)C(N)=O)[C@@H](C)O [T-E-pY] (Ac-Thr-Glu-[pY]-NH2)
- Ki (DUSP5pdWT [8]; [9]): 4800 µM
- Ki (DUSP5pdWT [8]; [10]): 4930 µM

Molecule: CC(=O)N[C@H](C(=O)N[C@@H](CCC(=O)O)C(=O)N[C@@H](Cc1ccc(O)cc1)C(N)=O)[C@@H](C)OP(=O)(O)O [pT-E-Y] (Ac-[pT]-Glu-Tyr-NH2)
- Ki (DUSP5pdWT [8]; global competitive model, Lineweaver-Burk fit (equation S2), read-out: Ki): 21900 µM
- Ki (DUSP5pdWT [8]; global competitive model, Michaelis-Menten fit (Eq. 2), read-out: Ki): 15800 µM
